From patent US20160031937A1, “NEURAL REGENERATION PEPTIDES AND USES THEREFOR” (CURONZ HOLDINGS COMPANY LIMITED, priority 2013, published 2016)
Square brackets hold non-standard residues; d marks the D form. Ends that are not written are not given here. Aib = CC(C)(N)C(=O)O

What was measured:
[1] = test system: CXCR4 gene expression; test: CXCR4 gene expression by real time PCR; assay type: cell-based, human; details: W9-hESCs
Method: The second experiment was done to assess the capability of NRP2945 for regulating the gene expression of its target receptor subunit CXCR4. For this purpose, W9-hESCs were either exposed to 10 minute, 30 minute or 60 minute of either 10 pM or 100 pM of NRP2945 under normoxic conditions; or in combination with 4 hours of OGD injury at concentrations of either 10 pM or 100 pM of NRP2945. At the end of the 4 hours, mRNA was extracted from all the cell samples, cDNA synthesis was performed using the SuperSript® cDNA kit (Invitrogen) followed by real time PCR. The efficacy of the real time PCR was 99% when using the following primers for the CXCR4 product propagation: […]
according to the publication: Nagase, Miyamasu et al. (2000) - J Immunol 164: 5935-5943

[2] = test system: NRP 13q13.2 gene expression; test: NRP 13q13.2 gene expression by semi-quantitative RT-PCR in NTERA-2 cells; assay type: cell-based, human
Method: mRNA was extracted according to standard procedures (TRIzole® from Invitrogen or RNeasy Mini from Qiagen). The mRNA fraction was subjected to DNase I treatment using DNaseI incubation mixture. For this treatment, 10 μl DNaseI stock plus 70 μl buffer was added to mRNA preparation and incubated for 5 minutes at room temperature. cDNA synthesis was then carried out according to standard procedures (SuperScript® III Reverse Transcriptase from Invitrogen).
The optimized RT-PCR strategy used an intron-spanning forward primer with high GC-content and TM (78° C.) and a reverse primer with a lower TM (60° C.). These primers are shown in FIG. 10, and also further below. The mRNA was treated with DNase I before starting the synthesis of cDNA, as the intron-spanning primer only bridged an intron of 9 nucleic acids.
The expected RT-PCR product was 221 by in length. PCR conditions included annealing at 58° C. and 36 total cycles. Samples were incubated at 94° C. for 5 minutes as the start of the GeneAmp® cycler operation. The 36 cycles included the sequence: 94° C. for 30 seconds; 58° C. for 30 seconds; 72° C. for 30 seconds; followed by cooling to 15° C. at the end of the PCR.
The PCR-reaction included: 10× buffer (2.50 μl), 50 mM MgCl2 (0.75 μl), 10 mM dNTPs (0.50 μl), Primer 1 (0.50 μl), Primer 2 (0.50 μl), Taq Polymerase (0.10 μl), cDNA (1.00 μl ), H2O (19.15 μl), to yield a total volume of 25.00 μl. Taq DNA Polymerase was sourced from Invitrogen (Platinum® Taq Polymerase).
NTERA-2 (ATCC No. CRL-1973) is a human carcinoma derived pluripotent cell line that has only single copies of chromosome 1, 10, 11 and 13. This was the impetus for using 36 cycles of PCR for detection of NRP expression.
Undifferentiated NTERA-2 cells were obtained. Frozen stocks were prepared with a maximum of 2 passages. NRP expression could be assessed in cells having up to 4-5 passages. The cell culture medium included ATCC-formulated DMEM plus 10% FCS. The medium was exchanged every 2-3 days. For passaging, cells were dislodges by scraping and then transferred into 75cm^2 flasks. An initial seeding included 5 million cells in 12-15 ml of cell medium per flask.
Subcultivation was performed for gene expression tests. For subcultivation, cells were dislodged by scraping and then gathered by centrifugation at 1500 rpm for 7 minutes, at 4° C. The media was discarded and the cells were resuspended in 16 ml fresh DMEM/10%FBS. The expected yield was 12-15 million cells in the flask. Thus, the resuspended cells were at a concentration of about 1 million cells per ml.
For passage 3, the remaining 4 ml of cell suspension plus 8 ml culture medium was transferred into new T75 cultivation flask.
[…] All conditions were applied for 15 minutes, 30 minutes, and 60 minutes.
mRNA was then collected. Cells were washed once at the end of the treatment with subsequent cell scraping. Cells were passed through 25-gauge needle into a 15 ml falcon tube. Falcon tube cell content was aspirated, washed once with DMEM, followed by trypsinization. […]
Centrifugation was carried out for 7 minutes at 1500 rpm, at 4° C. The pellets were then ready to be stored either at -80° C. or in liquid nitrogen until RNA extraction.
For RNA extraction, thawed cell pellets were prepared according to manufacturer's instructions (RNeasy Mini from Qiagen). RNA concentration was determined by NanoDropTM. […] For synthesis of sufficient quantities of cDNA, the RNA concentration in the cell samples was ensured to be between 10-20 ng/μl. […]

[3] = target: T1, homodimeric CXCR4 receptor (Homo sapiens, UniProt P61073); test: 125I-SDF-1 displacement binding study (CEREP); details: recombinant homodimeric CXCR4 expressing HEK293 cells; unlabelled peptide in competition
T1 construct: host or cells: HEK293
T1 sequence (P61073 whole entry): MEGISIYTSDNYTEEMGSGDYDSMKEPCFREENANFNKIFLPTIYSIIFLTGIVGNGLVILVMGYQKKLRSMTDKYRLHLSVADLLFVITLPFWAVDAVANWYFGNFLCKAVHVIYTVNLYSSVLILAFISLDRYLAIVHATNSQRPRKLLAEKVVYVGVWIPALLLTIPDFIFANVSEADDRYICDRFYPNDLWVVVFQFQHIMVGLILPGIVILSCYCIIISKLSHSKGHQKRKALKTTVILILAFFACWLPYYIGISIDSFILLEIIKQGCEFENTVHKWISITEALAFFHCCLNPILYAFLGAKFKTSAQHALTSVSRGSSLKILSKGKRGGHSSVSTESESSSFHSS
Method: This was determined by radioactive ^125I-SDF-1 displacement studies using CXCR4 homodimeric receptors and unlabelled NNZ-4921 and NRP2945 in competition.

[4] = test system: endogenous NRP gene expression; test: Endogenous NRP gene expression in human embryonic W9 stem cells; assay type: cell-based; details: 100 fM NRP2945
[5] = normoxic NTERA-2 cells, 1 pM NRP2945

## Gly Arg Arg Ala Ala Pro Gly Arg Aib Gly Gly (GRRAAPGR[Aib]GG) [NRP2945, synthetic 11-mer peptidomimetic optimized for stability and pharmacokinetics]
[1]; 4 hours of OGD, 10 pM or 100 pM NRP2945
  CXCR4 gene expression in the presence of OGD: unchanged
[1]; normoxic conditions, 10 pM or 100 pM NRP2945, relative to normoxic control, normalised to β actin
  expression of CXCR4 gene: decreased significantly after only 10 minutes
[1]; normoxic, maintained for at least 1 hour
  time of peak in CXCR4 gene down-regulation: 30 min
[1]; within 30 minutes
  extent of CXCR4 down-regulation: constitutively expressed levels seen in a human tissue cDNA library
[2]; NTERA-2 cells, 100 pM NRP2945
  time to stimulated endogenous NRP gene expression after administration: 5 to 10 min
[2]; NTERA-2 cells, 0.5 mM 3-NP with simultaneous 1 pM NRP2945
  NRP 13q13.2 gene expression during oxidative stress: up-regulated after 15 minutes and stays elevated during the period of analysis
[2]; human NTERA-2 cells, autocrine, unpublished results
  time frame of exposure for up-regulation of endogenous NRP gene expression (13q13.2): ≤ 10 min
[2]; [5]
  gene expression of NRP 13q13.2: highly elevated after only 15 minutes
  time of peak NRP 13q13.2 gene expression after peptide contact: 30 min
[3]
  displacement of 125I-SDF-1 from homodimeric CXCR4 receptor: do not bind to the homodimeric CXCR4 receptor
[4]
  time to stimulated endogenous NRP gene expression after administration: 5 to 10 min
